# Active and inactive are the calls of the source. The rule behind the calls is not given here.
# Columns and labels:
# MCF7 = assay: Antiproliferative activity against human MCF7 cells assessed as cell proliferation after 72 hrs by MTT assay; assay type: functional; parameters: concentration or dose not given beside the values
# [1] = biological target: T1, Histone deacetylase (Homo sapiens) (UniProt Q13547+O15379+Q9UBN7+Q92769+Q9UQL6+Q8WUI4+Q9BY41+Q96DB2+P56524+Q9UKV0+Q969S8); assay: Inhibition of HDAC in human MeT-5A cells assessed as hisone H3 acetylation after 16 hrs by BRET assay; assay type: cell-based
# HepG2 = assay: Antiproliferative activity against human HepG2 cells assessed as cell proliferation after 72 hrs by MTT assay; assay type: functional; parameters: concentration or dose not given beside the values
# [2] = Cytotoxicity against human MeT-5A cells; assay type: cell-based
# [3] = biological target: T1, Histone deacetylase (Homo sapiens); conditions: HeLa, at 12.5 µM
# Description: Inhibition of human HDAC in HeLa cells nuclear extract at 12.5 uM by fluorimetric assay
# [4] = biological target: T2, Protein deacetylase HDAC6 (Homo sapiens, UniProt Q9UBN7); assay: Inhibition of HDAC6 in human HeLa cells assessed as inhibition of tubulin deacetylation incubated for overnight by cELISA; assay type: cell-based
# T2 sequence (Q9UBN7 whole entry): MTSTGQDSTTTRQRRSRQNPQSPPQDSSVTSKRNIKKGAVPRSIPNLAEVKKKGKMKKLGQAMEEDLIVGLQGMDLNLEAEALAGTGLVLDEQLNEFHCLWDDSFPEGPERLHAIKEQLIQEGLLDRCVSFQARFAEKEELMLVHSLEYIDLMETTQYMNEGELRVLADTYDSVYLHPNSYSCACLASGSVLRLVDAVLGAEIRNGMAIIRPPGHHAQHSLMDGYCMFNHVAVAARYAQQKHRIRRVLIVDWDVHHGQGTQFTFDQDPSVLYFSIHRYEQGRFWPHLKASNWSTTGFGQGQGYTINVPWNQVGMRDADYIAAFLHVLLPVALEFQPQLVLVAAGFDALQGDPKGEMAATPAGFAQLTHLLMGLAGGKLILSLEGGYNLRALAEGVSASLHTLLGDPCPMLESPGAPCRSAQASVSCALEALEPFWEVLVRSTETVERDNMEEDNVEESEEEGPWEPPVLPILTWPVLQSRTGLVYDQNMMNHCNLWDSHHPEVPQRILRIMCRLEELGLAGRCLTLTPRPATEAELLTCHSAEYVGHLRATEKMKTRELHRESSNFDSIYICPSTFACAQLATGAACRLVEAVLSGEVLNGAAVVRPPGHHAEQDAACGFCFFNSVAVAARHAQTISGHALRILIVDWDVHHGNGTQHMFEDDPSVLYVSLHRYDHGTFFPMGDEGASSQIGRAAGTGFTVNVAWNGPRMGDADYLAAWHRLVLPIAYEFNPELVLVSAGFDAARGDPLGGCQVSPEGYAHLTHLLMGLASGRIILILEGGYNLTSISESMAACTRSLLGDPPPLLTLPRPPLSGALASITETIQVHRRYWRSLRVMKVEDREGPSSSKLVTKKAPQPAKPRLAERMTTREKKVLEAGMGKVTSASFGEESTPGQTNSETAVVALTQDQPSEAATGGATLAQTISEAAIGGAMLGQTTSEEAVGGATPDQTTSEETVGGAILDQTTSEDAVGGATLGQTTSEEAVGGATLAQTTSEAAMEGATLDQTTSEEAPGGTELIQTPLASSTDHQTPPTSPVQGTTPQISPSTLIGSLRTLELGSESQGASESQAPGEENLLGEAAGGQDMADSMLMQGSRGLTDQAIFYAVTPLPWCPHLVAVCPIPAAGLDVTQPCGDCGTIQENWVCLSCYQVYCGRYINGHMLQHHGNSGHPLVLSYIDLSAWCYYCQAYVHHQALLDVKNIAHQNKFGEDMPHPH
# [5] = biological target: T2, Protein deacetylase HDAC6; assay: Inhibition of HDAC6 (unknown origin) by fluorimetric assay
# Histone deacetylase 3 = Histone deacetylase 3 (Homo sapiens, UniProt O15379); assay: Inhibition of HDAC3 (unknown origin) by fluorimetric assay
# Homo sapiens [6] = organism: Homo sapiens; assay: Selectivity index, ratio of IC50 for HDAC1 (unknown origin) to IC50 for HDAC6 (unknown origin)
# [7] = biological target: T1, Histone deacetylase (Homo sapiens); assay: Inhibition of HDAC in human MeT-5A cells assessed as hisone H3 acetylation at 100 uM after 16 hrs by BRET assay; assay type: cell-based
# Histone deacetylase 1 = Histone deacetylase 1 (Homo sapiens, UniProt Q13547); assay: Inhibition of HDAC1 (unknown origin) by fluorimetric assay
# Histone deacetylase 2 = Histone deacetylase 2 (Homo sapiens, UniProt Q92769); assay: Inhibition of HDAC2 (unknown origin) by fluorimetric assay
# Homo sapiens [8] = organism: Homo sapiens; assay: Selectivity index, ratio of IC50 for HDAC2 (unknown origin) to IC50 for HDAC6 (unknown origin)
# Sequence of Histone deacetylase 3 (O15379 whole entry): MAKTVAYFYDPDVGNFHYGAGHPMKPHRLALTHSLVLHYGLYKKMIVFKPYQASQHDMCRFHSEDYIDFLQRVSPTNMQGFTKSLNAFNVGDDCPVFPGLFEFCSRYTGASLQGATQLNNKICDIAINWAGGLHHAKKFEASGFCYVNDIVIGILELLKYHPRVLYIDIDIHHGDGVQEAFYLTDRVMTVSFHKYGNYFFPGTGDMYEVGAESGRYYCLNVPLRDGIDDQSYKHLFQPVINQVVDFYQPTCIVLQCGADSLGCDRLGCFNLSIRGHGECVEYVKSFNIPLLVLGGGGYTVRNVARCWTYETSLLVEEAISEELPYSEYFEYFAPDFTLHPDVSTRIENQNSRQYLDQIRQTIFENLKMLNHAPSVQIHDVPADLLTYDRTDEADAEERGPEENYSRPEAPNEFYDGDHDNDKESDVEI
# Sequence of Histone deacetylase 1 (Q13547 whole entry): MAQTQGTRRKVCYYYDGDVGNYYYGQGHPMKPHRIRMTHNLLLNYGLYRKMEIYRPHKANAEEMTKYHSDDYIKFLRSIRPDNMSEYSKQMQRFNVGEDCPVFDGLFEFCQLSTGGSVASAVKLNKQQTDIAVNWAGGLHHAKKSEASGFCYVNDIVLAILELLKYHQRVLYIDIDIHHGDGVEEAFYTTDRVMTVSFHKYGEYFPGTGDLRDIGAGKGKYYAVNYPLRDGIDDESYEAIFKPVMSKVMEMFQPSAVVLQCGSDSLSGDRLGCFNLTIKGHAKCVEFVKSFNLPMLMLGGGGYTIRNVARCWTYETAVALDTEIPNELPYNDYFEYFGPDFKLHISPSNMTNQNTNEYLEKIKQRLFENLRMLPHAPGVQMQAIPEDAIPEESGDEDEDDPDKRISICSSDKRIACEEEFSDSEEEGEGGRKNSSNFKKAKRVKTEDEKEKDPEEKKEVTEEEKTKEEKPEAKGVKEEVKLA
# Sequence of Histone deacetylase 2 (Q92769 whole entry): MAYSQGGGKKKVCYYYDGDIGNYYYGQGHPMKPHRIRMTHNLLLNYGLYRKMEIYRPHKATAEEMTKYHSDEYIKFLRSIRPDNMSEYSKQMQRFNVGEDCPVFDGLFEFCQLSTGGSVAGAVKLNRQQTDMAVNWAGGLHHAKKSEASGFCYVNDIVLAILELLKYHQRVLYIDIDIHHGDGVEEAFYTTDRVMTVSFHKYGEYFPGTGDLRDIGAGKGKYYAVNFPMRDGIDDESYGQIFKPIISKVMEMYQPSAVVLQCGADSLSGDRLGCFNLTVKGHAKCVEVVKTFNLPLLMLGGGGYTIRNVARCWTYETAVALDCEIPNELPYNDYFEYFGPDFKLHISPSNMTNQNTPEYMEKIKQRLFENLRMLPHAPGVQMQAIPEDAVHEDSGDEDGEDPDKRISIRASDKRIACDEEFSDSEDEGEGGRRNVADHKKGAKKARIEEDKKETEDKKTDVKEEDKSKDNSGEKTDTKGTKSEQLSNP
Structure (SMILES),Cell proliferation (MCF7),inhibition [1],Cell proliferation (HepG2),Activity [2],EC50 [4],also measured
CC(C)(C)OC(=O)Nc1ccccc1NC(=O)CCCCCCC(=O)Nc1ccccc1NC(=O)OC(C)(C)C,87%,inactive,136%,–,–,–
O=C(CCCCCCC(=O)Nc1ccccc1)NO [VORINOSTAT],–,–,–,Non-toxic,–,–
CC(=O)Nc1ccc(C(=O)Nc2ccccc2N)cc1 [TACEDINALINE],–,–,–,Non-toxic,–,inhibition [3]: 42%
O=C(CCCCCCC(=O)NO)NO [SUBEROHYDROXAMIC ACID],93%,–,107%,Non-toxic,1.1 µM,IC50 [5]: 2.03 µM; IC50 (Histone deacetylase 3): 62.6 µM
CC(C)(C)OC(=O)Nc1ccccc1NC(=O)CC/C=C/CCC(=O)Nc1ccccc1NC(=O)OC(C)(C)C,–,inactive,–,–,–,–
CC(C)(C)OC(=O)ON(C(=O)CC/C=C/CCC(=O)N(OC(=O)OC(C)(C)C)C(=O)OC(C)(C)C)C(=O)OC(C)(C)C,100%,inactive,138%,Non-toxic,17.7 µM,–
Nc1ccccc1NC(=O)CCCCCCC(=O)Nc1ccccc1N,92%,Active,114%,Non-toxic,–,–
CC(C)(C)OC(=O)ON(C(=O)CCCCCCC(=O)N(OC(=O)OC(C)(C)C)C(=O)OC(C)(C)C)C(=O)OC(C)(C)C,92%,Active,108%,Non-toxic,5 µM,Ratio IC50 (Homo sapiens [6]): 10; Activity [7]: 17 mU; IC50 [5]: 3.39 µM; IC50 (Histone deacetylase 1): 30.6 µM; IC50 (Histone deacetylase 2): 29.8 µM; inhibition [3]: 60%; Ratio IC50 (Homo sapiens [8]): 10; IC50 (Histone deacetylase 3): > 100 µM
C=CCCC(=O)Nc1ccccc1NC(=O)OC(C)(C)C,50%,–,142%,–,–,–
C=CCCC(=O)N(OC(=O)OC(C)(C)C)C(=O)OC(C)(C)C,94%,–,110%,–,–,–
